Results from ChEMBL document CHEMBL6127049, “Discovery of the selective and nanomolar inhibitor of DPP-4 more potent than sitagliptin by structure-guided rational design” (Eur J Med Chem, 2024).
Each block holds one compound with its values, some of them ahead of it. Activity calls are given as the source filed them. No cut-off for these calls is given here.

Columns and labels:
Dipeptidyl peptidase 4 = Dipeptidyl peptidase 4 (Homo sapiens, UniProt P27487); experiment: Inhibition of DPP4 (unknown origin) assessed as hydrolysis rate using Gly-pro-p-nitroanilide as substrate measured after 20 mins incubation by fluorometric assay
Sequence of Dipeptidyl peptidase 4 (P27487 whole entry): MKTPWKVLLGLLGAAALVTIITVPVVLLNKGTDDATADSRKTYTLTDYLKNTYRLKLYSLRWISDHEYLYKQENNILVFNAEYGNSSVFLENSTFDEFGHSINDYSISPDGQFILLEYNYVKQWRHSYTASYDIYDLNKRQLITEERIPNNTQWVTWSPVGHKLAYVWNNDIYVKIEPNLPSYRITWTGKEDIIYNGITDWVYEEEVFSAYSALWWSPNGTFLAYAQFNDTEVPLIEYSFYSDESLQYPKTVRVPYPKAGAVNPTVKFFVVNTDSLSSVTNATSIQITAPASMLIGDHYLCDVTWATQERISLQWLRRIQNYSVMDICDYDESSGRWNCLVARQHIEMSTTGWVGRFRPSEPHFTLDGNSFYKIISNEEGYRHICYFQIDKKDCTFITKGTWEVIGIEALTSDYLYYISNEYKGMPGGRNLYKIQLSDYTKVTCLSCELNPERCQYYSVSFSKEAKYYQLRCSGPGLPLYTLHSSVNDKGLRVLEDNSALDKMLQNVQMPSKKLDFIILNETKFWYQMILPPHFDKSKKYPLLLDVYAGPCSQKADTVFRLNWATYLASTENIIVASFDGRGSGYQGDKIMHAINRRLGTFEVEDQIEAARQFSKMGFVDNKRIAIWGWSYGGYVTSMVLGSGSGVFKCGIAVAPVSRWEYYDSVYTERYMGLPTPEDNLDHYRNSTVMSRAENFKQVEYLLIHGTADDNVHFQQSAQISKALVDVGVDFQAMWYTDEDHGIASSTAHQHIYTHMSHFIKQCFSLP

Rattus norvegicus [1] = experiment: Anti-diabetic activity in normal Wistar rat model assessed as blood glucose level at 10 mg/kg, po followed by treated administered 3 mg/kg orally measured after 60 mins by Oral glucose tolerance test (reference value: 153.74 + /- 3.94 mg/dL); format: functional; settings: 1 h
Rattus norvegicus [2] = experiment: Anti-diabetic activity in normal Wistar rat model assessed as blood glucose level at 10 mg/kg, po followed by treated administered 3 mg/kg orally measured immediately after administration by Oral glucose tolerance test (reference value: 105.12 mg/dL); format: functional
Rattus norvegicus [3] = experiment: Antihyperlipidemic effect in STZ-induced type 2 diabetes male Wistar albino rat model assessed as triglyceride level at 20 mg/kg, po measured after 4 weeks (reference value: 190.23 +/- 4.37 mg/dL); format: functional
Rattus norvegicus [4] = experiment: Anti-diabetic activity in normal Wistar rat model assessed as blood glucose level at 10 mg/kg, po followed by treated administered 3 mg/kg orally measured after 120 mins by Oral glucose tolerance test (reference value: 126.5 + /- 3.90 mg/dL); format: functional; settings: 2 h
Rattus norvegicus [5] = experiment: Anti-diabetic activity in normal Wistar rat model assessed as blood glucose level at 20 mg/kg, po followed by treated administered 3 mg/kg orally measured immediately after administration by Oral glucose tolerance test (reference value: 105.12 mg/dL); format: functional
[6] = Acute toxicity in Balb/C mouse assessed as morphological changes in unusual behavior at 1250 to 2000 mg/kg, po; format: organism-based; settings: in vivo, dose 1250-2000 mg/kg
Rattus norvegicus [7] = experiment: Antihyperlipidemic effect in STZ-induced type 2 diabetes male Wistar albino rat model assessed as HDL level at 20 mg/kg, po measured after 4 weeks (reference value: 25.54 +/- 2.62 mg/dL); format: functional
[8] = Acute toxicity in Balb/C mouse assessed as morphological changes in convulsions at 1250 to 2000 mg/kg, po; format: organism-based; settings: in vivo, dose 1250-2000 mg/kg
[9] = Acute toxicity in Balb/C mouse assessed as morphological changes in salvation at 1250 to 2000 mg/kg, po; format: organism-based; settings: in vivo, dose 1250-2000 mg/kg
Rattus norvegicus [10] = experiment: Antihyperlipidemic effect in STZ-induced type 2 diabetes male Wistar albino rat model assessed as LDL level at 20 mg/kg, po measured after 4 weeks (reference value: 184.65 +/- 4.57 mg/dL); format: functional
Rattus norvegicus [11] = experiment: Reduction of serum glutamate oxaloacetate transaminase (SGOT) level in STZ-induced type 2 diabetes male Wistar albino rat model at 10 mg/kg, po measured after 4 weeks by hepatic function test; format: functional, organism-based
[12] = Acute toxicity in Balb/C mouse assessed as morphological changes in diarrhea at 1250 to 2000 mg/kg, po; format: organism-based; settings: in vivo, dose 1250-2000 mg/kg
Rattus norvegicus [13] = experiment: Anti-diabetic activity in normal Wistar rat model assessed as blood glucose level at 20 mg/kg, po followed by treated administered 3 mg/kg orally measured after 90 mins by Oral glucose tolerance test (reference value: 134.11 + /- 4.64 mg/dL); format: functional; settings: 1.5 h
Rattus norvegicus [14] = experiment: Anti-diabetic activity in normal Wistar rat model assessed as blood glucose level at 10 mg/kg, po followed by treated administered 3 mg/kg orally measured after 30 mins by Oral glucose tolerance test (reference value: […] 176.14 + /- 4.04 mg/dL); format: functional; settings: 0.5 h
Rattus norvegicus [15] = experiment: Reduction of serum glutamate oxaloacetate transaminase (SGOT) level in STZ-induced type 2 diabetes male Wistar albino rat model at 20 mg/kg, po measured after 4 weeks by hepatic function test; format: functional, organism-based
Rattus norvegicus [16] = experiment: Antihyperlipidemic effect in STZ-induced type 2 diabetes male Wistar albino rat model assessed as HDL level at 10 mg/kg, po measured after 4 weeks (reference value: 25.54 +/- 2.62 mg/dL); format: functional
Rattus norvegicus [17] = experiment: Anti-diabetic activity in normal Wistar rat model assessed as blood glucose level at 20 mg/kg, po followed by treated administered 3 mg/kg orally measured after 30 mins by Oral glucose tolerance test (reference value: 176.14 + /- 4.04 mg/dL); format: functional; settings: 0.5 h
[18] = Acute toxicity in Balb/C mouse assessed as changes in general appearance at 1250 to 2000 mg/kg, po; format: organism-based; settings: in vivo, dose 1250-2000 mg/kg
Rattus norvegicus [19] = experiment: Antihyperlipidemic effect in STZ-induced type 2 diabetes male Wistar albino rat model assessed as total cholesterol level at 20 mg/kg, po measured after 4 weeks (reference value: 227.04 +/- 4.10 mg/dL); format: functional
Dipeptidyl peptidase 9 = Dipeptidyl peptidase 9 (Homo sapiens, UniProt Q86TI2); experiment: Inhibition of DPP9 (unknown origin) assessed as hydrolysis rate using Gly-pro-p-nitroanilide as substrate measured after 20 mins incubation by […] assay
Sequence of Dipeptidyl peptidase 9 (Q86TI2 whole entry): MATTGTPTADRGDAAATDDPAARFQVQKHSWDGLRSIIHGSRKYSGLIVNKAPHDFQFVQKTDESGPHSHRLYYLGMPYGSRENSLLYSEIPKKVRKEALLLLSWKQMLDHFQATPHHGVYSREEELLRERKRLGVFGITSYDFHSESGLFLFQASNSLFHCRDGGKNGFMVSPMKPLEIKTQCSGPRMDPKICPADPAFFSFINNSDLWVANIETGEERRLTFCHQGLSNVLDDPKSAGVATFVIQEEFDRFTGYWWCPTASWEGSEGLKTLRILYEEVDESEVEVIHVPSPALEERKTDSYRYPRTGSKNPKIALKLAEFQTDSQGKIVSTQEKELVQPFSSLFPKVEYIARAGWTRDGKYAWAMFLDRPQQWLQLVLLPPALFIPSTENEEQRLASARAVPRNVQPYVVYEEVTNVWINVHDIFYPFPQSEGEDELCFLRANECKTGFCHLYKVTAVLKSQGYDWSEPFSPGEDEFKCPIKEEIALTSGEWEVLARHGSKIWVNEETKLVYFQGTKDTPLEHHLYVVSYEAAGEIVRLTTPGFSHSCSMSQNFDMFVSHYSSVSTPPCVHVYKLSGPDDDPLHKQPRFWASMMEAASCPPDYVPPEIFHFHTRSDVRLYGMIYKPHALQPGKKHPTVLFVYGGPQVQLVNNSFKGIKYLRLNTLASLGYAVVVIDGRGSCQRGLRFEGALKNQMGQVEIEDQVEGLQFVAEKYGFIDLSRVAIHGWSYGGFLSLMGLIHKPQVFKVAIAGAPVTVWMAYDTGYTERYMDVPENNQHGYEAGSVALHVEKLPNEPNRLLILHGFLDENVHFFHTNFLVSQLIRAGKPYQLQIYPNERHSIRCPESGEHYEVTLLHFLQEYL

[20] = Acute toxicity in Balb/C mouse assessed as morphological changes in tremors at 1250 to 2000 mg/kg, po; format: organism-based; settings: in vivo, dose 1250-2000 mg/kg
Rattus norvegicus [21] = experiment: Anti-diabetic activity in normal Wistar rat model assessed as blood glucose level at 20 mg/kg, po followed by treated administered 3 mg/kg orally measured after 120 mins by Oral glucose tolerance test (reference value: 126.5 + /- 3.90 mg/dL); format: functional; settings: 2 h
Rattus norvegicus [22] = experiment: Antihyperlipidemic effect in STZ-induced type 2 diabetes male Wistar albino rat model assessed as triglyceride level at 10 mg/kg, po measured after 4 weeks (reference value: 190.23 +/- 4.37 mg/dL); format: functional
Dipeptidyl peptidase 8 = Dipeptidyl peptidase 8 (Homo sapiens, UniProt Q6V1X1); experiment: Inhibition of DPP8 (unknown origin) assessed as hydrolysis rate using Gly-pro-p-nitroanilide as substrate measured after 20 mins incubation by […] assay
Sequence of Dipeptidyl peptidase 8 (Q6V1X1 whole entry): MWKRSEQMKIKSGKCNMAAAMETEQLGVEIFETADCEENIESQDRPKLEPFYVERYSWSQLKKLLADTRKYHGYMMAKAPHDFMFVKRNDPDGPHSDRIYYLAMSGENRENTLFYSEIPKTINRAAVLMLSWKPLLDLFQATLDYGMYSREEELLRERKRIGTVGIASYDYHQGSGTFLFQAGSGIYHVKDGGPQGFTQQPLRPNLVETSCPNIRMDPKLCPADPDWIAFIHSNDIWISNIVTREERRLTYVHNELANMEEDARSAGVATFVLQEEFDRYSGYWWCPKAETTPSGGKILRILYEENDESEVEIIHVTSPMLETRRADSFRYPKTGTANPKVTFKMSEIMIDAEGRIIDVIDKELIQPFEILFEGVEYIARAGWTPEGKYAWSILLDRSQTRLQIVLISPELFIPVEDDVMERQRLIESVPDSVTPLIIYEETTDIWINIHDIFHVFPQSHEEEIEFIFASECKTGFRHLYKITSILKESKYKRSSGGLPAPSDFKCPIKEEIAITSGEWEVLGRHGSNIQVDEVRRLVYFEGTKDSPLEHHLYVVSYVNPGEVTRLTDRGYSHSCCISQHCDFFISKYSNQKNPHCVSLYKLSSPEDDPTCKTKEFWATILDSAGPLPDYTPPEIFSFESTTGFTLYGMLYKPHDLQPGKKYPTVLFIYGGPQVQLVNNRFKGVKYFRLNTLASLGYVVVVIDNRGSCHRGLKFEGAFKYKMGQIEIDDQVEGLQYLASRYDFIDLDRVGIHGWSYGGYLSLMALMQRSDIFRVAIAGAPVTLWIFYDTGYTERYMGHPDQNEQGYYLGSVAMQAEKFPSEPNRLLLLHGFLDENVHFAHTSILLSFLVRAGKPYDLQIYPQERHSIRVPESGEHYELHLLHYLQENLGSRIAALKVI

[23] = Acute toxicity in Balb/C mouse assessed as morphological changes in eyes at 1250 to 2000 mg/kg, po; format: organism-based; settings: in vivo, dose 1250-2000 mg/kg
[24] = Acute toxicity in Balb/C mouse assessed as morphological changes in skin at 1250 to 2000 mg/kg, po; format: organism-based; settings: in vivo, dose 1250-2000 mg/kg
Rattus norvegicus [25] = experiment: Reduction of alkaline phosphatase (ALP) level in STZ-induced type 2 diabetes male Wistar albino rat model at 10 mg/kg, po measured after 4 weeks by hepatic function test; format: functional, organism-based
Rattus norvegicus [26] = experiment: Reduction of insulin level in STZ-induced type 2 diabetes male Wistar albino rat model at 20 mg/kg, po measured after 4 weeks by hepatic function test; format: functional, organism-based
Rattus norvegicus [27] = experiment: Anti-diabetic activity in normal Wistar rat model assessed as blood glucose level at 10 mg/kg, po followed by treated administered 3 mg/kg orally measured after 90 mins by Oral glucose tolerance test (reference value: 134.11 + /- 4.64 mg/dL); format: functional; settings: 1.5 h
Rattus norvegicus [28] = experiment: Antihyperlipidemic effect in STZ-induced type 2 diabetes male Wistar albino rat model assessed as total cholesterol level at 10 mg/kg, po measured after 4 weeks (reference value: 227.04 +/- 4.10 mg/dL); format: functional
Rattus norvegicus [29] = experiment: Reduction of serum glutamate pyruvate transaminase (SGPT) level in STZ-induced type 2 diabetes male Wistar albino rat model at 20 mg/kg, po measured after 4 weeks by hepatic function test; format: functional, organism-based
[30] = Acute toxicity in Balb/C mouse assessed as morphological changes in nose at 1250 to 2000 mg/kg, po; format: organism-based; settings: in vivo, dose 1250-2000 mg/kg
[31] = Acute toxicity in Balb/C mouse assessed as morphological changes in fur at 1250 to 2000 mg/kg, po; format: organism-based; settings: in vivo, dose 1250-2000 mg/kg
Rattus norvegicus [32] = experiment: Antihyperlipidemic effect in STZ-induced type 2 diabetes male Wistar albino rat model assessed as LDL level at 10 mg/kg, po measured after 4 weeks (reference value: 184.65 +/- 4.57 mg/dL); format: functional
Rattus norvegicus [33] = experiment: Reduction of alkaline phosphatase (ALP) level in STZ-induced type 2 diabetes male Wistar albino rat model at 20 mg/kg, po measured after 4 weeks by hepatic function test; format: functional, organism-based
Rattus norvegicus [34] = experiment: Reduction of serum glutamate pyruvate transaminase (SGPT) level in STZ-induced type 2 diabetes male Wistar albino rat model at 10 mg/kg, po measured after 4 weeks by hepatic function test; format: functional, organism-based
Rattus norvegicus [35] = experiment: Anti-diabetic activity in normal Wistar rat model assessed as blood glucose level at 20 mg/kg, po followed by treated administered 3 mg/kg orally measured after 60 mins by Oral glucose tolerance test (reference value: 153.74 + /- 3.94 mg/dL); format: functional; settings: 1 h

- IC50 (Dipeptidyl peptidase 4): 769 nM
SMILES: Cc1nc(N2Cc3cn(S(C)(=O)=O)nc3C2)nc(C)c1CC(=O)O

- IC50 (Dipeptidyl peptidase 4): 1030 nM
SMILES: CC1=C(CC(=O)N2CCCC2C#N)C(C)NC(=O)N1 (stereo unspecified)

- IC50 (Dipeptidyl peptidase 4): 2540 nM
SMILES: CC1=C([N+](=O)[O-])C(c2ccc(F)c(F)c2)N=C(N)N1C(=O)CN1CCC[C@H]1C(=O)O (stereo partly specified)

- IC50 (Dipeptidyl peptidase 4): 1230 nM
SMILES: Cc1nc(N2CCCC2C#N)nc(C)c1CC(=O)O (stereo unspecified)

- IC50 (Dipeptidyl peptidase 4): 226 nM
SMILES: Cc1nc(N2CCn3c(nnc3C(F)(F)F)C2)nc(C)c1CC(=O)O

- IC50 (Dipeptidyl peptidase 4): 1400 nM
SMILES: Cc1nc(N2CCCC(N)C2)nc(C)c1CC(=O)O (stereo unspecified)

Second part, the compound before the results:

SMILES: CC1=C([N+](=O)[O-])C(c2ccc(F)c(F)c2)N=C(N)N1C(=O)CN1CCn2c(nnc2C(F)(F)F)C1 (stereo unspecified)
- Activity (Rattus norvegicus [1]): 117.43 mg/dL
- Activity (Rattus norvegicus [2]): 104.01 mg/dL
- Activity (Rattus norvegicus [3]): 119.45 mg/dL
- Activity (Rattus norvegicus [4]): 113.91 mg/dL
- Activity (Rattus norvegicus [5]): 103.88 mg/dL
- Activity [6]: Non-Toxic
- Activity (Rattus norvegicus [7]): 54.23 mg/dL
- Activity [8]: Non-Toxic
- Activity [9]: Non-Toxic
- Activity (Rattus norvegicus [10]): 115.89 mg/dL
- Activity (Rattus norvegicus [11]): Active
- Activity [12]: Non-Toxic
- Activity (Rattus norvegicus [13]): 107.56 mg/dL
- Activity (Rattus norvegicus [14]): 120.87 mg/dL
- Activity (Rattus norvegicus [15]): Active
- IC50 (Dipeptidyl peptidase 4): 85 nM
- Activity (Rattus norvegicus [16]): 46.34 mg/dL
- Activity (Rattus norvegicus [17]): 117.46 mg/dL
- Activity [18]: Non-Toxic
- Activity (Rattus norvegicus [19]): 137.56 mg/dL
- IC50 (Dipeptidyl peptidase 9): 1970 nM
- Activity [20]: Non-Toxic
- Activity (Rattus norvegicus [21]): 111.1 mg/dL
- Activity (Rattus norvegicus [22]): 149.76 mg/dL
- IC50 (Dipeptidyl peptidase 8): 1340 nM
- Activity [23]: Non-Toxic
- Activity [24]: Non-Toxic
- Activity (Rattus norvegicus [25]): Active
- Activity (Rattus norvegicus [26]): Active
- Activity (Rattus norvegicus [27]): 109.45 mg/dL
- Activity (Rattus norvegicus [28]): 154.87 mg/dL
- Activity (Rattus norvegicus [29]): Active
- Activity [30]: Non-Toxic
- Activity [31]: Non-Toxic
- Activity (Rattus norvegicus [32]): 134.87 mg/dL
- Activity (Rattus norvegicus [33]): Active
- Activity (Rattus norvegicus [34]): Active
- Activity (Rattus norvegicus [35]): 115.67 mg/dL

SMILES: CC1=C(CC(=O)N2Cc3cn(S(C)(=O)=O)nc3C2)C(c2ccc(F)c(F)c2)NC(=O)N1 (stereo unspecified)
- IC50 (Dipeptidyl peptidase 4): 478 nM

SMILES: CC1=C(CC(=O)N2CCCC(N)C2)C(c2ccc(F)c(F)c2)NC(=O)N1 (stereo unspecified)
- IC50 (Dipeptidyl peptidase 4): 1040 nM

SMILES: CC1=C(C(=O)O)C(c2ccc(F)c(F)c2)N=C(N)N1C(=O)CN1CCCC(N)C1 (stereo unspecified)
- Activity (Rattus norvegicus [1]): 108.35 mg/dL
- Activity (Rattus norvegicus [2]): 103.07 mg/dL
- Activity (Rattus norvegicus [3]): 114.65 mg/dL
- Activity (Rattus norvegicus [4]): 106.76 mg/dL
- Activity (Rattus norvegicus [5]): 101.44 mg/dL
- Activity (Rattus norvegicus [7]): 56.98 mg/dL
- Activity (Rattus norvegicus [10]): 107.12 mg/dL
- Activity (Rattus norvegicus [11]): Active
- Activity (Rattus norvegicus [13]): 114.84 mg/dL
- Activity (Rattus norvegicus [14]): 118.62 mg/dL
- Activity (Rattus norvegicus [15]): Active
- IC50 (Dipeptidyl peptidase 4): 90 nM
- Activity (Rattus norvegicus [16]): 48.23 mg/dL
- Activity (Rattus norvegicus [17]): 115.15 mg/dL
- Activity (Rattus norvegicus [19]): 134.45 mg/dL
- Activity (Rattus norvegicus [21]): 110.72 mg/dL
- Activity (Rattus norvegicus [22]): 143.78 mg/dL
- Activity (Rattus norvegicus [25]): Active
- Activity (Rattus norvegicus [27]): 107.57 mg/dL
- Activity (Rattus norvegicus [28]): 148.09 mg/dL
- Activity (Rattus norvegicus [29]): Active
- Activity (Rattus norvegicus [32]): 123.32 mg/dL
- Activity (Rattus norvegicus [33]): Active
- Activity (Rattus norvegicus [34]): Active
- Activity (Rattus norvegicus [35]): 118.96 mg/dL
